For the assay, the target named is T1, S. clavuligerus expandase (Streptomyces clavuligerus, UniProt P18548).
T1 construct: endogenous in cells; host or cells: S. clavuligerus mutant NP1, crude cell-free extract
The assay is described as follows: Penicillin ring expansion by cell-free S. clavuligerus expandase extracts, paper disc-agar diffusion bioassay. The format is biochemical. Particulars: for DAOG: cell-free extract. As to the method: Preparation of Cell-free Extracts: Fermentation broths were centrifuged at 8,000×g and 4° C. for 10 min. Pellets were washed twice using 50 mM Tris-HCI supplemented with 0.1 mM dithiothreitol (DTT). The cells were resuspended in the same buffer and disrupted by four 25-sec. sonication treatments (power setting 5 and duty cycle 50%), in an ice-water bath using a Branson 350 sonifier (Branson Sonic Power Co., Danbury, Conn.). Cell debris was removed by centrifugation (14,000×g, 30 min., 4° C.). The resulting extracts containing 8-10 mg protein/ml were placed on ice and utilized immediately. Protein concentrations were measured using the Bio-Rad protein assay (Bio-Rad, Hercules, Calif.). Bovine serum albumin was used as standard.
Ring Expansion Reaction: We defined ring expansion reaction conditions as modifications of the standard reaction mixture for expandase reactions described by Maeda et al. (Maeda et al., Enzyme Microb. Technol. 17:231-34, 1995) except that penicillin G was used a substrate instead of penicillin N. Additions were made following the order established by Shen et al. (Shen et al., Enzyme Microb. Technol. 6:402-404, 1984. Reaction mixtures were incubated in test tubes (cell-free extract) or 250 ml baffled flasks (resting cells) at 220 rpm, 30° C. Reactions containing the protein extract were stopped at various times (see Table 1 and Figure Legends) by mixing 0.5 ml of assay solution with 0.5 ml of methanol. In the case of resting cells, samples were centrifuged to remove cells and supernatants were transferred to new tubes. Expandase activity was detected by paper disc-agar diffusion bioassay.
Detection of Expandase Activity: As mentioned above, expandase activity was detected by assaying production of a growth-inhibitory zone in a paper disc-agar diffusion bioassay. Paper discs were saturated with 200 μl of the reaction mixture (cell-free extracts or supernatant (resting cells) as follows. Two discs were superimposed and four 50 μl samples were applied. After each application, the discs were allowed to dry for 20 min at 37° C. under a laminar hood and, finally, they were placed on LB (1% tryptone, 0.5% NaCl, 0.5% yeast extract, 0.1% glucose) 0.8% agar medium seeded with E. coli ESS (a β-lactam supersensitive mutant), and the plates were incubated overnight at 37° C. The formation of DAOG and/or other cephalosporin(s) was determined by including 50,000 IU/ml of penicillinase (Difco Bacto penase concentrate, Difco Laboratories, Detroit, Mich.) in the assay plates. This penicillinase is a narrow spectrum β-lactamase that attacks penicillins but not cephalosporins. The diameters of zones of growth inhibition were measured and quantified with a calibration curve using DAOG as standard.
Ring Expansion of Other Penicillins by Cell-free Extracts: We tested our reaction conditions for their ability to support ring expansion on other penicillin substrates and found detectable expansion with each of the 15 substrates that we tested. […] The reactions contained 4 mg/ml extract (protein concentration), 50 mM Tris-HCl pH 7.4, 1.8 mM FeSO4, 1.28 mM α-ketoglutarate, 8 mM MgSO4, 8 mM KCl, 4 mM ascorbic acid, 14 mM DTT, and 2 mg/ml substrate (except for penicillin mX and octanoyl-6-APA, which were used at 3 mg/ml). Samples were centrifuged at 12K rpm for 5 minutes after 2 hours of reaction. 250 μl of reaction mixture was used in each bioassay.
A general note: A growth-free zone around the sample is the usual read-out of agar diffusion tests.

Some results are limits rather than exact numbers.

T1 sequence (P18548 whole entry): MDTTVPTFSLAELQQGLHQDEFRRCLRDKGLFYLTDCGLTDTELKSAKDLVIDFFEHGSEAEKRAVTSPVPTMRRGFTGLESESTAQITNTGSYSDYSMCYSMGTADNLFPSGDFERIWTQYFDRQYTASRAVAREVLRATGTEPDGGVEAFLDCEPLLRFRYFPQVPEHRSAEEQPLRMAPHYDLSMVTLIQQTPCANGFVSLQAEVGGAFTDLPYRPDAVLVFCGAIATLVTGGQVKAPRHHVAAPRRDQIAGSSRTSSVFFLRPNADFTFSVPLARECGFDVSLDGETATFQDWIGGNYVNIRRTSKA

On to `CC1(C)S[C@@H]2[C@H](NC(=O)Cc3ccccc3)C(=O)N2[C@H]1C(=O)O` [Penicillin G, penicillin G], for which the “Ring expansion, size of zones of inhibition” value (4 mg/ml extract protein, 2 mg/ml substrate (penicillin mX and octanoyl-6-APA 3 mg/ml), 2 hours) is given as “Large zones of inhibition”. Further, for the setting “4 mg/ml extract protein, 2 mg/ml substrate, 2 hours of reaction, 250 μl in bioassay (E. coli ESS, penicillinase)”, the “Inhibition Zone Diameter” value is 29 mm. Moreover, the DAOG (protein 1 mg/ml, FeSO4 0.036 mM, α-ketoglutarate 0.64 mM, penicillin G 0.1 mg/ml) is under 2 µg/mL; the DAOG (protein 1 mg/ml, FeSO4 0.036 mM, α-ketoglutarate 0.64 mM, penicillin G 0.3 mg/ml) was under 2 µg/mL; the DAOG (protein 1 mg/ml, FeSO4 0.036 mM, α-ketoglutarate 0.64 mM, penicillin G 1 mg/ml) was 2.1 µg/mL; the DAOG (protein 1 mg/ml, FeSO4 1.8 mM, α-ketoglutarate 1.28 mM, penicillin G 0.1 mg/ml) is under 2 µg/mL; the DAOG (protein 1 mg/ml, FeSO4 1.8 mM, α-ketoglutarate 1.28 mM, penicillin G 0.3 mg/ml) was under 2 µg/mL; the DAOG (protein 1 mg/ml, FeSO4 1.8 mM, α-ketoglutarate 1.28 mM, penicillin G 1 mg/ml) turned out to be 2.1 µg/mL. Moreover, the DAOG is under 2 µg/mL (protein 2 mg/ml, FeSO4 0.036 mM, α-ketoglutarate 0.64 mM, penicillin G 0.1 mg/ml); 2.1 µg/mL (protein 2 mg/ml, FeSO4 0.036 mM, α-ketoglutarate 0.64 mM, penicillin G 0.3 mg/ml); 2.6 µg/mL (protein 2 mg/ml, FeSO4 0.036 mM, α-ketoglutarate 0.64 mM, penicillin G 1 mg/ml); 2.1 µg/mL (protein 2 mg/ml, FeSO4 1.8 mM, α-ketoglutarate 1.28 mM, penicillin G 0.1 mg/ml); 2.3 µg/mL (protein 2 mg/ml, FeSO4 1.8 mM, α-ketoglutarate 1.28 mM, penicillin G 0.3 mg/ml); 3.4 µg/mL (protein 2 mg/ml, FeSO4 1.8 mM, α-ketoglutarate 1.28 mM, penicillin G 1 mg/ml). Besides, the DAOG (protein 4 mg/ml, FeSO4 0.036 mM, α-ketoglutarate 0.64 mM, penicillin G 0.1 mg/ml) stood at 2.3 µg/mL; the DAOG (protein 4 mg/ml, FeSO4 0.036 mM, α-ketoglutarate 0.64 mM, penicillin G 0.3 mg/ml) is 2.6 µg/mL; the DAOG (protein 4 mg/ml, FeSO4 0.036 mM, α-ketoglutarate 0.64 mM, penicillin G 1 mg/ml) came to 3.4 µg/mL; the DAOG (protein 4 mg/ml, FeSO4 1.8 mM, α-ketoglutarate 1.28 mM, penicillin G 0.1 mg/ml) stood at 2.8 µg/mL; the DAOG (protein 4 mg/ml, FeSO4 1.8 mM, α-ketoglutarate 1.28 mM, penicillin G 0.3 mg/ml) was determined as 3.4 µg/mL; the DAOG (protein 4 mg/ml, FeSO4 1.8 mM, α-ketoglutarate 1.28 mM, penicillin G 1 mg/ml) came to 5.6 µg/mL.

Values taken from patent US6383773B2, “Penicillin conversion” (Massachusetts Institute of Technology, priority 1998, dated 2002).
